The values below are quoted from earlier work in patent publication US8021659B2, “Coenzyme Q10, lactoferrin and angiogenin compositions and uses thereof” (Naidu LP, priority 2006, dated 2011).

Where two headings read alike, the source gives them in different places.

For data set [1] the following is noted: human plasma.

On to “AGN: 14-kDa, basic heparin-binding protein and a member of the pancreatic ribonuclease superfamily”, for which the “half-life (turnover rate)” value in data set [1] was < 5 min.
As to `COC1=C(OC)C(=O)C(C/C=C(\C)CC/C=C(\C)CC/C=C(\C)CC/C=C(\C)CC/C=C(\C)CC/C=C(\C)CC/C=C(\C)CC/C=C(\C)CC/C=C(\C)CCC=C(C)C)=C(C)C1=O` [CoQ-10, 2,3-dimethoxy-5-methyl-6-decaprenyl-1,4-benzoquinone], the elimination half-life result (excretion primarily through the biliary tract) was “approximately 34 hours”. The “time to peak levels of CoQ-10 in the plasma” value (following oral administration) is 5 to 10 h. The “orally administered CoQ-10 excreted in the feces” value (oral administration) is reported as “more than 60%”. In addition, the serum concentrations reads like this: (regular doses of 30-60 mg/day) 0.7 to 1.0 µg/mL; (therapeutic doses of 100-200 mg/day) 2.0 to 3.0 µg/mL.
